Where “and” joins values, the source holds several entries; their conditions need not be identical. Equal values may be shown once.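 48-hour exposure; five concentrations; linearly interpolated endpoints. At the GI50, growth is halved. At the TGI there is no net growth.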
Columns and labels:
Test in all cases: NCI tumour cell line growth inhibition, 48 h
[1] = tested on: EKVX NSCLC
[2] = tested on: NCI-H522 lung
[3] = tested on: HOP-62 NSCLC
[4] = tested on: SN12C renal
[5] = tested on: SK-MEL-5 melanoma
[6] = tested on: KM12 colon
[7] = tested on: HL-60(TB) leukemia
[8] = tested on: SW-620 colon
[9] = tested on: M14 melanoma
[10] = tested on: SNB-75 CNS

SMILES	TGI [1]	TGI [2]	TGI [3] [µM]	TGI [4] [µM]	TGI [5]	TGI [6]	TGI [7] [µM]	TGI [8]	TGI [9] [µM]	TGI [10] [µM]	GI50 [1] [µM]	GI50 [2] [µM]	GI50 [3] [µM]	GI50 [4] [µM]	GI50 [5] [µM]	GI50 [6] [µM]	GI50 [7] [µM]	GI50 [8] [µM]	GI50 [9] [µM]	GI50 [10] [µM]
CC(=O)OC1CCC2OOC1O2 (stereo not drawn)	> 100 µM	> 100 µM	> 100	> 100	> 100 µM	> 100 µM	> 100	> 100 µM	> 100	> 100										
CCN1CCN(c2nc(C)cc(NCc3cc(Nc4ccnc5cc(Cl)ccc45)ccc3F)n2)CC1	14 µM	7.77 µM	4.57	6.41	3.12 µM	10.5 µM	4.55	4.81 µM	3.12	3.52	3.03	3.02	1.58	1.94	1.7	2.95	2.22	1.78	1.45	1.37
Cc1ccc2c(c1)-c1c3c(nn1C)-c1ccccc1SC3O2 (stereo not drawn)	> 100 µM	> 100 µM	> 100			> 100 µM	> 100	> 100 µM		> 100										
Cc1nc2sc(C(=O)Nc3cccc(Br)c3C)c(N)c2cc1C(O)c1ccccc1 (stereo not drawn)	43.8 µM	2.55 µM	18.5	6.04	0.263 µM	4.76 µM	0.0876	19.3 µM	14.7	13.4	0.283	0.0286	0.0549	0.0581	0.0468	0.0373	0.03	0.0382	0.0306	0.0279
O=C(O)c1ccc2c(c1)C(=O)N(c1ccc(S(=O)(=O)c3ccc(N4C(=O)c5ccc(C(=O)O)cc5C4=O)cc3)cc1)C2=O	> 100 µM	> 100 µM	> 100	> 100	> 100 µM	> 100 µM	> 100	> 100 µM	> 100	> 100										
COc1cccc2c1C(=O)c1c(O)c3c(c(O)c1C2=O)C[C@@](O)(C(=O)CO)CC3OC1CC(N)C(OC2CCCCO2)C(C)O1 (stereo partly drawn)	1.02 µM and 7.26 µM	0.282 µM and 1.72 µM			0.179 µM and 1.08 µM	0.583 µM and 3.09 µM		1.03 µM and 7.04 µM			0.156	0.0409	0.0029	0.0157	0.0291	1.19	< 0.001	0.113	0.0529	0.0171
COc1ccc(CN2C(=O)[C@@H]3Cc4c(OC)c(C)c(OC)c(OC)c4[C@H](/C2=C\c2cc(OC)c(OC)c(C)c2OC)N3C(=O)OC(C)C)cc1	> 100 µM	> 100 µM	> 100	> 100	> 100 µM	> 100 µM	> 100	> 100 µM	> 100	> 100										
Cc1ccccc1NC(=O)/C(=N\NC(N)=S)C(C#N)c1ccccc1 (stereo not drawn)	> 100 µM	> 100 µM	> 100	> 100	> 100 µM	> 100 µM	> 100	> 100 µM	> 100	> 100										
O=C(Oc1ccccc1)N(c1ccccc1)c1ccccc1	> 100 µM		> 100	> 100	29.9 µM	> 100 µM	71.4	> 100 µM	65.2	52.5	18.7		32.2	27.7	15	28.7	28.2	38.8	24.7	19.6
CN(C)NC(=O)/C(=C/c1ccc(Cl)cc1)NC(=O)c1ccccc1	> 100 µM	> 100 µM	> 100	> 100	> 100 µM	> 100 µM	> 100		> 100	> 100										
COc1ccc2c(c1)C(=Nc1ccc(F)c(Cl)c1)c1c-2c(Nc2ccc(F)c(Cl)c2)nc2ccccc12	> 100 µM	> 100 µM	32.4	> 67	> 100 µM	> 100 µM	33.1	> 100 µM	> 100		89.2	44.3	13.7	33.8	> 100	> 100	14.8	> 100	47.1	
Cc1ccccc1NC(=O)Cc1nc2ccccc2s1	35.1 µM	29.3 µM		30.2	> 100 µM	31.3 µM	62	36 µM	25.2	> 100										
COc1cc(C(=O)/C=C/c2cc(-c3ccc4c(c3)OCO4)n[nH]2)cc(OC)c1OC		3.41 µM	6.24	6.28	13.3 µM	3.85 µM	6.49	3.8 µM	9.2	7.27		1.59	2.32	2.26	3.32	1.86	2.17	1.62	2.91	2.4
Cc1ccc(C[As+](c2ccccc2)(c2ccccc2)c2ccccc2)cc1		8.38 µM	32.9	12.1	0.719 µM	4.46 µM	1.48	> 38.1 µM	10.8	10.3		0.649	1.5	1.25	0.23	0.385	0.286	0.99	0.704	1.1
Nc1[nH]nc2nc(-c3cc(Cl)ccc3Cl)cc(-c3ccc(F)cc3)c12	58.3 µM	31.5 µM	47.8	38.6	34.1 µM	58 µM		68.7 µM	49.8	> 100	17.5	14.4	22.7	20.4	16.6	22.6		25.4	27.9	51.5
CCCCC(=O)N(c1ccc(Nc2c3ccccc3nc3cc([N+](=O)[O-])ccc23)cc1)S(C)(=O)=O		16 µM	52.5	> 100	18.3 µM	19.3 µM	> 69.7	31 µM	33.6	64.8		3.93	4.52	4.86	4.25	2.63	12.9	5.73	11	4.7

Reference: PubChem BioAssay (NCI)
